Patent US20160310501A1, “GABA[…] SIGMA RECEPTOR LIGANDS COMBINATIONS” (LABORATORIOS DEL DR. ESTEVE, S.A., priority 2013, published 2016)
Counter-ions that a name gives are not always drawn.

Test system: post-operative pain model in rats
Test: Mechanical allodynia (von Frey filaments) in the post-operative pain model (plantar incision)
Type: in vivo
Method: The induction of anesthesia in rats was performed with 3% isofluran for veterinary use, employing an Ohmeda vaporizer and an anesthesia chamber. Anesthesia was kept during the surgical operation by a tube which directs the isofluran vapors to the animal's snout. Once the rats were anesthetized, they were laid down in a prone position and their right hind paws were cleaned out with alcohol.
Then, a skin incision in the hindpaw of about 10 mm was made by means of a scalpel, starting about 5 mm from the heel and extending toward the toes. Fascia was located and by means of curve scissors muscle was elevated and a longitudinal incision of about 5 mm was made, thus the muscle origin and insertion remained intact. The skin of the paw was stitched with a suturing stitch with breaded silk (3.0) and the wound was cleaned out with povidone.
The assessment was performed 30 minutes after the administration of product and always 4 hours after the plantar incision. The analysis was carried out evaluating the mechanical allodynia. It was tested using von Frey filaments: Animals were placed in methacrylate cylinders on an elevated surface, with metallic mesh floor perforated in order to apply the filaments. After an acclimation period of about 30 minutes within the cylinders, both hindpaws were stimulated (the injured and the non-injured paw, serving the latter as control), starting with the lowest force filament (0.4 g) and reaching a 15 g filament. The animal's response to pain was manifested by the withdrawal of the paw as a consequence of the painful stimulus caused by a filament.
(§1) The efficacy of the combined use of Pregabalin and compound 63.HCl was tested at different doses of compound 63.HCl (5, 10, 20, 40 and 80 mg/kg), while the Pregabalin dose remained constant (0.04 mg/kg). The administrations were performed 3.5 hours after surgery. The treated subjects were tested according to the mechanical allodynia protocol above (FIG. 1).
as §1, with “Gabapentin” for “Pregabalin”, “(10,” for “(5, 10,”, “(10” for “(0.04”, “2).” for “1).”

`Cc1cc(OCCN2CCOCC2)nn1-c1ccc2ccccc2c1` [compound 63.HCl, 4-{2-[5-Methyl-1-(naphthalen-2-yl)-1H-pyrazol-3-yloxy]ethyl}morpholine hydrochloride] gave an ED50 (Rattus norvegicus, compound alone, 10, 20, 40 and 80 mg/kg, FIG. 2) of 40 mg/kg and an Emax (Rattus norvegicus, compound alone, dose dependent (5, 10, 20, 40 and 80 mg/kg), FIG. 1, 30 min after administration, 4 h after plantar incision, read-out: maximum effect) of 43%.
`NCC1(CC(=O)O)CCCCC1` [Gabapentin] was tested, and the “effect (analgesia, mechanical allodynia)” value (Gabapentin alone at 10 mg/kg, non-significant, FIG. 2) was 0±2%.
With `CC(C)C[C@H](CN)CC(=O)O` [Pregabalin] the “effect (analgesia, mechanical allodynia)” value (Pregabalin alone, sub-active dose 0.04 mg/kg, FIG. 1) was “non-significant effect”.
